For data set [1] the following is noted: cited from earlier work.
The conditions of data set [2]: cited from earlier work. The source holds these as a separate data set.
Data set [3] in a line: Chemical stability (hydrolysis) of acyclovir esters in aqueous buffer, unchanged ester quantified by HPLC. The following applies: for pH=1, t½, h: pH 1.0 (0.1 M HCl); for pH=1, t½, h / pH=7.4, t½, h: 37°C, decomposition half-life; for chemical stability at pH 1 (in words): pH 1.0, 37°C, acidic conditions; for pH=7.4, t½, h: pH 7.4 (phosphate buffer); for chemical stability at pH 7.4 (in words): pH 7.4, 37°C. Type of data set: physicochemical. The procedure: It was established that, under the described experimental conditions, some esters underwent decomposition by hydrolysis. The hydrolysis followed apparent first order kinetics, and the rate constants (K) were obtained as slopes from the semi-logarithmic plots of the unchanged ester concentration versus time. The chemical stability was assessed by means of the decomposition half-lives: t1/2=ln2/K
Chromatography was carried out isocratically, on a modular KNAUER HPLC system (Germany), consisting of a Smartline Pump 1000, a Smartline Manager 5000 solvent degasser, an injector with a 20 μl loop and a Smartline UV Detector 2600 diode array. The analyses were controlled and the data were acquired with EuroChrom software. The mobile phase consisted of acetonitrile/water in a ratio of 30:70 or 50:50 v/v depending on the polarity of the compound and a flow rate 1 ml/min was used. The detection was performed at relevant λmax for the respective compound (range 252–262 nm).
A single chromatographic method was used to detect the studied acyclovir esters with thiazole rings containing amino acids (Gly, Ala, Val, Leu) in aqueous buffer solutions at pH 1.0 (0.1 M HCl) and pH 7.4 (phosphate buffer). Twenty microlitres of each sample were injected into a reverse phase HPLC C18 column. The mobile phase consisted of acetonitrile/water at a ratio of 30:70 or 50:50 v/v depending on the polarity of the compound. The analyses of the esters of acyclovir with amino acid (Gly, Ala, Val, Leu) containing thiazole rings were validated. The specificity of the method was investigated by observing potential interference between the esters of acyclovir and its parent drug, acyclovir. No interfering peaks were presented in the chromatograms. The linearity of the relationship between the peak area and concentration was determined by analysing six standard solutions in a concentration range of 0.1–1.0 mmol/l. For all analytes, the relationship between the peak area ratio of the drug to the internal standard and concentration was linear over the entire examined concentration range. The correlation coefficients of the calibration curves were greater than 0.997.
Hydrolysis of acyclovir esters with thiazole rings containing amino acids (Gly, Ala, Val, Leu) was studied at pH 1.0 (HCl) and pH 7.4 (phosphate buffered saline). Stock solutions of the prodrugs were prepared and used immediately for stability studies. Aliquots (9.8 ml) of the buffer were placed in a screw-capped vial and allowed equilibrate at 37°C. A prodrug stock solution (0.2 ml) was added to the buffer. The vial was placed in a constant shaker bath set at 37°C and 60 rpm. Each sample was directly analysed by HPLC.

The conditions of data set [4]: cited from earlier work. This is another data set of the same source.
For the next data set, the system named is HSV-2. The arrangement: method as in PMID 19400144. The note with it: cited from earlier work.
Another data set concerns HSV-1. The arrangement: method as in PMID 19400144. The following applies: cited from earlier work.

Values joined by “and” are separate entries in the source; they are usually repeats but may differ in a detail not shown here. Equal entries are not always repeated. Where two headings read alike, the source gives them in different places.

Consider `Nc1nc2c(ncn2COCCO)c(=O)[nH]1` [ACV, 9-[(2-hydroxyethoxy)methyl]guanine], for which the aqueous solubility entry in data set [1] is reported as “low aqueous solubility”. Further, the “bioavailability by oral administration” value in data set [2] is reported as 14%.
On to `CC(C)(C)OC(=O)NCc1nc(C(=O)OCCOCn2cnc3c(=O)[nH]c(N)nc32)cs1` [compound 1, Boc-2-aminomethyl-thiazole-acyclovir], for which, in data set [3], the “pH=1, t½, h” value came to 1.1±0.1 h; the “chemical stability at pH 1 (in words)” value was “less stable”; the “pH=7.4, t½, h” value turned out to be 5.9±0.5 h; the “chemical stability at pH 7.4 (in words)” value is “lower stability”. In addition, the “chemical stability at pH 1 (in words)” value in data set [3] (listed as Gly-thiazole) is on record as “rather unstable”.
For orientation: t½ means the time in which the quantity being followed falls by half. As for `CC(C)[C@H](N)C(=O)OCCOCn1cnc2c(=O)[nH]c(N)nc21` [valacyclovir], the “t½ at pH 7.4” value in data set [4] (pH 7.4, 37°C) is listed as 13 h; in data set [4] (pH 7.4), 13 h. Moreover, in data set [2] (oral administration), the “bioavailability relative to acyclovir” value is recorded as “four-fold higher”.
As to `CC(NC(=O)OC(C)(C)C)c1nc(C(=O)OCCOCn2cnc3c(=O)[nH]c(N)nc32)cs1` (stereo not drawn) [compound 2, Boc-2-Ala-thiazole-acyclovir], in the data set with HSV-2, the “effect against HSV-2” value is on record as “appreciable effect”. Further, in the data set on HSV-2 (listed as Ala-thiazolyl ester of acyclovir), the “effect against HSV-2” value is listed as “prominent activity”. In data set [3], the “pH=1, t½, h” value is 1.3±0.1 h; the “chemical stability at pH 1 (in words)” value is recorded as “rather unstable”; the “pH=7.4, t½, h” value is reported as 7.8±0.5 h; the “chemical stability at pH 7.4 (in words)” value is “satisfying chemical stability”.
Regarding `CC(C)CC(NC(=O)OC(C)(C)C)c1nc(C(=O)OCCOCn2cnc3c(=O)[nH]c(N)nc32)cs1` (stereo not drawn) [compound 4, Boc-2-Leu-thiazole-acyclovir], in data set [3], the “pH=1, t½, h” value turned out to be 2.6±0.2 h; the “chemical stability at pH 1 (in words)” value is listed as “rather unstable”; the “pH=7.4, t½, h” value stood at 5.0±0.4 h; the “chemical stability at pH 7.4 (in words)” value was “lower stability”.
As to `CC(C)C(NC(=O)OC(C)(C)C)c1nc(C(=O)OCCOCn2cnc3c(=O)[nH]c(N)nc32)cs1` (stereo not drawn) [compound 3, Boc-2-Val-thiazole-acyclovir], the “effect against HSV-1” value in the data set with HSV-1 is recorded as “did not exhibit a satisfying effect”. In addition, the “effect against HSV-2” value in the data set with HSV-2 was “did not exhibit a satisfying effect”. In data set [3], the “pH=1, t½, h” value is recorded as 0.7±0.1 h; the “chemical stability at pH 1 (in words)” value was “less stable”; the “pH=7.4, t½, h” value is 17 h and 17.8±0.9 h; the “chemical stability at pH 7.4 (in words)” value was “highest chemical stability”. Also, the “chemical stability at pH 7.4 (in words)” value in data set [3] (listed as Valthiazole-acyclovir) was “remarkable”.

The record behind these values is article PMC3134859, “Chemical Stability of New Acyclovir Analogues with Peptidomimetics” (Scientia Pharmaceutica, 2011).
